According to patent publication US20100298141A1, “SUBSTITUTED PYRIDINE N-OXIDE HERBICIDES” (E. I. DU PONT DE NEMOURS AND COMPANY, priority 2007, published 2010):

Legend:
barnyardgrass [1] = test: Test A pre-/postemergence greenhouse test; format: in vivo, Echinochloa crus-galli; conditions: for Plant response rating, Barnyardgrass: 0 to 100 scale where 0 is no effect and 100 is complete control; for Barnyardgrass plant response rating: 0 to 100 scale
Text: (§1) Seeds of barnyardgrass (Echinochloa crus-galli), crabgrass (Digitaria sanguinalis), giant foxtail (Setaria faberi), morningglory (Ipomoea spp.), redroot pigweed (Amaranthus retroflexus), velvetleaf (Abutilon theophrasti), wheat (Triticum aestivum), and corn (Zea mays) were planted into a blend of loam soil and sand and treated preemergence with a directed soil spray using test compounds formulated in a non-phytotoxic solvent mixture which included a surfactant. At the same time these species were also treated with postemergence applications of test compounds formulated in the same manner. Plants ranged in height from two to ten cm and were in the one- to two-leaf stage for the postemergence treatment. Treated plants and untreated controls were maintained in a greenhouse for approximately ten days, after which time all treated plants were compared to untreated controls and visually evaluated for injury. […] A dash (-) response means no test results.

crabgrass = test: Test A pre-/postemergence greenhouse test; format: in vivo, Digitaria sanguinalis; conditions: for Plant response rating, Crabgrass, Large: 0 to 100 scale where 0 is no effect and 100 is complete control; for Crabgrass, Large plant response rating: 0 to 100 scale
Text: as §1

giant foxtail = test: Test A pre-/postemergence greenhouse test; format: in vivo, Setaria faberi; conditions: for Plant response rating, Foxtail, Giant: 0 to 100 scale where 0 is no effect and 100 is complete control; for Foxtail, Giant plant response rating: 0 to 100 scale
Text: as §1

morningglory = test: Test A pre-/postemergence greenhouse test; format: in vivo, Ipomoea spp.; conditions: for Plant response rating, Morningglory: 0 to 100 scale where 0 is no effect and 100 is complete control; for Morningglory plant response rating: 0 to 100 scale
Text: as §1

redroot pigweed = test: Test A pre-/postemergence greenhouse test; format: in vivo, Amaranthus retroflexus; conditions: for Plant response rating, Pigweed: 0 to 100 scale where 0 is no effect and 100 is complete control; for Pigweed plant response rating: 0 to 100 scale
Text: as §1

velvetleaf = test: Test A pre-/postemergence greenhouse test; format: in vivo, Abutilon theophrasti; conditions: for Plant response rating, Velvetleaf: 0 to 100 scale where 0 is no effect and 100 is complete control; for Velvetleaf plant response rating: 0 to 100 scale
Text: as §1

wheat = test: Test A pre-/postemergence greenhouse test; format: in vivo, Triticum aestivum; conditions: for Plant response rating, Wheat: 0 to 100 scale where 0 is no effect and 100 is complete control; for Wheat plant response rating: 0 to 100 scale
Text: as §1

corn = test: Test A pre-/postemergence greenhouse test; format: in vivo, Zea mays; conditions: for Plant response rating, Corn: 0 to 100 scale where 0 is no effect and 100 is complete control; for Corn plant response rating: 0 to 100 scale
Text: as §1

rice = test: Test C flooded paddy test; format: in vivo, Oryza sativa; conditions: Flood
Text: (§2) At time of treatment, test pots were flooded to 3 cm above the soil surface, treated by application of test compounds directly to the paddy water, and then maintained at that water depth for the duration of the test. Treated plants and controls were maintained in a greenhouse for 13 to 15 days, after which time all species were compared to controls and visually evaluated. […] A dash (-) response means no test result.

umbrella sedge = test: Test C flooded paddy test; format: in vivo, Cyperus difformis; conditions: Flood
Text: as §2

duck salad = test: Test C flooded paddy test; format: in vivo, Heteranthera limosa; conditions: Flood
Text: as §2

barnyardgrass [2] = test: Test C flooded paddy test; format: in vivo, Echinochloa crus-galli; conditions: Flood
Text: as §2

[3] = Postemergence, 500 g ai/ha, 0 is no effect, 100 is complete control
[4] = Preemergence, 125 g ai/ha, 0 no effect, 100 complete control
[5] = Preemergence, 500 g ai/ha, 0 no effect, 100 complete control
[6] = 62 g ai/ha, scale 0 to 100 (0 no effect, 100 complete control)
[7] = 250 g ai/ha, scale 0 to 100, 0 no effect, 100 complete control, 13 to 15 days

| Compound | Plant response rating, Barnyardgrass (barnyardgrass [1]; Postemergence, 125 g ai/ha) | Barnyardgrass plant response rating (barnyardgrass [1]; [3]) | Barnyardgrass plant response rating (barnyardgrass [1]; [4]) | Plant response rating, Crabgrass, Large (crabgrass; Postemergence, 125 g ai/ha) | Crabgrass, Large plant response rating (crabgrass; [3]) | Crabgrass, Large plant response rating (crabgrass; [4]) | Plant response rating, Foxtail, Giant (giant foxtail; Postemergence, 125 g ai/ha) | Foxtail, Giant plant response rating (giant foxtail; [3]) | Foxtail, Giant plant response rating (giant foxtail; [4]) | Plant response rating, Morningglory (morningglory; Postemergence, 125 g ai/ha) | Morningglory plant response rating (morningglory; [3]) | Morningglory plant response rating (morningglory; [4]) | Plant response rating, Pigweed (redroot pigweed; Postemergence, 125 g ai/ha) | Pigweed plant response rating (redroot pigweed; [3]) | Pigweed plant response rating (redroot pigweed; [4]) | Plant response rating, Velvetleaf (velvetleaf; Postemergence, 125 g ai/ha) | Velvetleaf plant response rating (velvetleaf; [3]) | Velvetleaf plant response rating (velvetleaf; [4]) | Velvetleaf plant response rating (velvetleaf; [5]) | Wheat plant response rating (wheat; [3]) | other results |
| --- | --- | --- | --- | --- | --- | --- | --- | --- | --- | --- | --- | --- | --- | --- | --- | --- | --- | --- | --- | --- | --- |
| Cn1nc(C(F)(F)F)c(CS(=O)(=O)c2ccc(Cl)c[n+]2[O-])c1OCC(F)(F)C(F)(F)F [Compound 97] | 20 | 70 | 10 | 20 | 60 | 20 | 30 | 70 | 70 | 0 | 0 | 0 | 0 | 20 | 30 | 0 | 30 | 0 | 0 | 30 | Plant response rating, Barnyardgrass (barnyardgrass [1]; Preemergence, 500 g ai/ha): 90; Plant response rating, Crabgrass, Large (crabgrass; Preemergence, 500 g ai/ha): 70; Plant response rating, Foxtail, Giant (giant foxtail; Preemergence, 500 g ai/ha): 80; Plant response rating, Morningglory (morningglory; Preemergence, 500 g ai/ha): 20; Plant response rating, Pigweed (redroot pigweed; Preemergence, 500 g ai/ha): 30; Plant response rating, Wheat (wheat; Postemergence, 125 g ai/ha): 0; Wheat plant response rating (wheat; [4]): 0; Wheat plant response rating (wheat; [5]): 0; Plant response rating, Corn (corn; Postemergence, 125 g ai/ha): 0; Corn plant response rating (corn; [3]): 0; Corn plant response rating (corn; [4]): 0; Plant response rating, Corn (corn; Preemergence, 500 g ai/ha): 0; Plant response rating, Rice (rice; [6]): 0; Plant response rating, Rice (rice; [7]): 30; Plant response rating, Sedge, Umbrella (umbrella sedge; [6]): 0; Plant response rating, Sedge, Umbrella (umbrella sedge; [7]): 0; Plant response rating, Ducksalad (duck salad; [6]): 0; Plant response rating, Ducksalad (duck salad; [7]): 40; Plant response rating, Barnyardgrass (barnyardgrass [2]; [6]): 0; Plant response rating, Barnyardgrass (barnyardgrass [2]; [7]): 0 |
| CC(Oc1c(CS(=O)(=O)c2ccc(Cl)c[n+]2[O-])c(C(F)(F)F)nn1C)C(F)(F)F (stereo not drawn) [Compound 95] | 50 | 70 | 10 | 20 | 80 | 20 | 20 | 80 | 70 | 0 | 20 | 0 | 0 | 30 | 0 | 40 | 40 | 0 | 0 | 30 | Plant response rating, Barnyardgrass (barnyardgrass [1]; Preemergence, 500 g ai/ha): 90; Plant response rating, Crabgrass, Large (crabgrass; Preemergence, 500 g ai/ha): 80; Plant response rating, Foxtail, Giant (giant foxtail; Preemergence, 500 g ai/ha): 90; Plant response rating, Morningglory (morningglory; Preemergence, 500 g ai/ha): 20; Plant response rating, Pigweed (redroot pigweed; Preemergence, 500 g ai/ha): 10; Wheat plant response rating (wheat; [4]): 0; Wheat plant response rating (wheat; [5]): 30; Corn plant response rating (corn; [3]): 0; Corn plant response rating (corn; [4]): 0; Plant response rating, Corn (corn; Preemergence, 500 g ai/ha): 0; Plant response rating, Rice (rice; [6]): 0; Plant response rating, Rice (rice; [7]): 20; Plant response rating, Sedge, Umbrella (umbrella sedge; [6]): 0; Plant response rating, Sedge, Umbrella (umbrella sedge; [7]): 35; Plant response rating, Ducksalad (duck salad; [6]): 0; Plant response rating, Ducksalad (duck salad; [7]): 80; Plant response rating, Barnyardgrass (barnyardgrass [2]; [6]): 0; Plant response rating, Barnyardgrass (barnyardgrass [2]; [7]): 20 |
| Cn1nc(C(F)(F)F)c(C[S+]([O-])c2cc(C3CC3)cc[n+]2[O-])c1OC(F)F (stereo not drawn) [Compound 120] | 60 | 70 | 80 | 50 | 80 | 90 | 80 | 90 | 100 | 50 | 80 | 80 | 60 | 80 | 100 | 60 | 80 | 60 | 80 | 50 | Barnyardgrass plant response rating (barnyardgrass [1]; [5]): 100; Crabgrass, Large plant response rating (crabgrass; [5]): 90; Foxtail, Giant plant response rating (giant foxtail; [5]): 100; Morningglory plant response rating (morningglory; [5]): 90; Pigweed plant response rating (redroot pigweed; [5]): 100; Plant response rating, Wheat (wheat; Postemergence, 125 g ai/ha): 40; Wheat plant response rating (wheat; [4]): 50; Wheat plant response rating (wheat; [5]): 100; Plant response rating, Corn (corn; Postemergence, 125 g ai/ha): 30; Corn plant response rating (corn; [3]): 70; Corn plant response rating (corn; [4]): 80; Corn plant response rating (corn; [5]): 90 |
| CCCc1cc[n+]([O-])c([S+]([O-])Cc2c(C(F)(F)F)nn(C)c2OC(F)F)c1 (stereo not drawn) [Compound 116] | 70 | 80 | 70 | 70 | 80 | 90 | 80 | 90 | 100 | 60 | 90 | 100 | 70 | 90 | 100 | 50 | 80 | 0 | 90 | 60 | Barnyardgrass plant response rating (barnyardgrass [1]; [5]): 100; Crabgrass, Large plant response rating (crabgrass; [5]): 100; Foxtail, Giant plant response rating (giant foxtail; [5]): 100; Morningglory plant response rating (morningglory; [5]): 100; Pigweed plant response rating (redroot pigweed; [5]): 100; Plant response rating, Wheat (wheat; Postemergence, 125 g ai/ha): 50; Wheat plant response rating (wheat; [4]): 50; Wheat plant response rating (wheat; [5]): 80; Plant response rating, Corn (corn; Postemergence, 125 g ai/ha): 60; Corn plant response rating (corn; [3]): 90; Corn plant response rating (corn; [4]): 60; Corn plant response rating (corn; [5]): 90 |
| CC(C)c1cc[n+]([O-])c(S(=O)(=O)Cc2c(C(F)(F)F)nn(C)c2OCC(F)(F)F)c1 [Compound 111, 4-(1-methylethyl)-2-[[[1-methyl-5-(2,2,2-trifluoroethoxy)-3-trifluoromethyl-1H-pyrazol-4-yl]methyl]sulfonyl]pyridine 1-oxide] | 50 | 70 | 80 | 40 | 70 | 60 | 60 | 80 | 90 | 20 | 60 | 80 | 60 | 60 | 50 | 50 | 60 | 60 | 100 | 60 | Barnyardgrass plant response rating (barnyardgrass [1]; [5]): 100; Crabgrass, Large plant response rating (crabgrass; [5]): 90; Foxtail, Giant plant response rating (giant foxtail; [5]): 100; Morningglory plant response rating (morningglory; [5]): 100; Pigweed plant response rating (redroot pigweed; [5]): 100; Plant response rating, Wheat (wheat; Postemergence, 125 g ai/ha): 50; Wheat plant response rating (wheat; [4]): 50; Wheat plant response rating (wheat; [5]): 80; Plant response rating, Corn (corn; Postemergence, 125 g ai/ha): 0; Corn plant response rating (corn; [3]): 40; Corn plant response rating (corn; [4]): 0; Corn plant response rating (corn; [5]): 50 |
